Laboratory results as given in ChEMBL document CHEMBL5723584 (2023).

Experiments:
[1] = target: Serine/threonine-protein kinase PLK2 (Homo sapiens) (UniProt Q9NYY3); test: activity of Snk(h) at 1.0 µM in the Eurofins Kinase panel; details: Compound concentration 1.0 uM
[2] = target: Myosin light chain kinase (Homo sapiens) (UniProt Q32MK0); test: activity of MLCK(h) at 1.0 µM in the Eurofins Kinase panel; details: Compound concentration 1.0 uM
[3] = target: Serine/threonine-protein kinase 10 (Homo sapiens) (UniProt O94804); test: activity of LOK(h) at 1.0 µM in the Eurofins Kinase panel; details: Compound concentration 1.0 uM
[4] = target: RAF proto-oncogene serine/threonine-protein kinase (Homo sapiens) (UniProt P04049); test: activity of c-RAF(h) at 1.0 µM in the Eurofins Kinase panel; details: Compound concentration 1.0 uM
[5] = target: Tyrosine-protein kinase Yes (Homo sapiens) (UniProt P07947); test: activity of Yes(h) at 1.0 µM in the Eurofins Kinase panel; details: Compound concentration 1.0 uM
[6] = target: NUAK family SNF1-like kinase 1 (Homo sapiens) (UniProt O60285); test: activity of ARK5(h) at 1.0 µM in the Eurofins Kinase panel; details: Compound concentration 1.0 uM
[7] = target: BMP-2-inducible protein kinase (Homo sapiens, UniProt Q9NSY1); test: Promega NanoBRET (BMP2K)
[8] = target: Proto-oncogene tyrosine-protein kinase ROS (Homo sapiens) (UniProt P08922); test: activity of Ros(h) at 1.0 µM in the Eurofins Kinase panel; details: Compound concentration 1.0 uM
Proto-oncogene tyrosine-protein kinase ROS (Homo sapiens), sequence (P08922 whole entry): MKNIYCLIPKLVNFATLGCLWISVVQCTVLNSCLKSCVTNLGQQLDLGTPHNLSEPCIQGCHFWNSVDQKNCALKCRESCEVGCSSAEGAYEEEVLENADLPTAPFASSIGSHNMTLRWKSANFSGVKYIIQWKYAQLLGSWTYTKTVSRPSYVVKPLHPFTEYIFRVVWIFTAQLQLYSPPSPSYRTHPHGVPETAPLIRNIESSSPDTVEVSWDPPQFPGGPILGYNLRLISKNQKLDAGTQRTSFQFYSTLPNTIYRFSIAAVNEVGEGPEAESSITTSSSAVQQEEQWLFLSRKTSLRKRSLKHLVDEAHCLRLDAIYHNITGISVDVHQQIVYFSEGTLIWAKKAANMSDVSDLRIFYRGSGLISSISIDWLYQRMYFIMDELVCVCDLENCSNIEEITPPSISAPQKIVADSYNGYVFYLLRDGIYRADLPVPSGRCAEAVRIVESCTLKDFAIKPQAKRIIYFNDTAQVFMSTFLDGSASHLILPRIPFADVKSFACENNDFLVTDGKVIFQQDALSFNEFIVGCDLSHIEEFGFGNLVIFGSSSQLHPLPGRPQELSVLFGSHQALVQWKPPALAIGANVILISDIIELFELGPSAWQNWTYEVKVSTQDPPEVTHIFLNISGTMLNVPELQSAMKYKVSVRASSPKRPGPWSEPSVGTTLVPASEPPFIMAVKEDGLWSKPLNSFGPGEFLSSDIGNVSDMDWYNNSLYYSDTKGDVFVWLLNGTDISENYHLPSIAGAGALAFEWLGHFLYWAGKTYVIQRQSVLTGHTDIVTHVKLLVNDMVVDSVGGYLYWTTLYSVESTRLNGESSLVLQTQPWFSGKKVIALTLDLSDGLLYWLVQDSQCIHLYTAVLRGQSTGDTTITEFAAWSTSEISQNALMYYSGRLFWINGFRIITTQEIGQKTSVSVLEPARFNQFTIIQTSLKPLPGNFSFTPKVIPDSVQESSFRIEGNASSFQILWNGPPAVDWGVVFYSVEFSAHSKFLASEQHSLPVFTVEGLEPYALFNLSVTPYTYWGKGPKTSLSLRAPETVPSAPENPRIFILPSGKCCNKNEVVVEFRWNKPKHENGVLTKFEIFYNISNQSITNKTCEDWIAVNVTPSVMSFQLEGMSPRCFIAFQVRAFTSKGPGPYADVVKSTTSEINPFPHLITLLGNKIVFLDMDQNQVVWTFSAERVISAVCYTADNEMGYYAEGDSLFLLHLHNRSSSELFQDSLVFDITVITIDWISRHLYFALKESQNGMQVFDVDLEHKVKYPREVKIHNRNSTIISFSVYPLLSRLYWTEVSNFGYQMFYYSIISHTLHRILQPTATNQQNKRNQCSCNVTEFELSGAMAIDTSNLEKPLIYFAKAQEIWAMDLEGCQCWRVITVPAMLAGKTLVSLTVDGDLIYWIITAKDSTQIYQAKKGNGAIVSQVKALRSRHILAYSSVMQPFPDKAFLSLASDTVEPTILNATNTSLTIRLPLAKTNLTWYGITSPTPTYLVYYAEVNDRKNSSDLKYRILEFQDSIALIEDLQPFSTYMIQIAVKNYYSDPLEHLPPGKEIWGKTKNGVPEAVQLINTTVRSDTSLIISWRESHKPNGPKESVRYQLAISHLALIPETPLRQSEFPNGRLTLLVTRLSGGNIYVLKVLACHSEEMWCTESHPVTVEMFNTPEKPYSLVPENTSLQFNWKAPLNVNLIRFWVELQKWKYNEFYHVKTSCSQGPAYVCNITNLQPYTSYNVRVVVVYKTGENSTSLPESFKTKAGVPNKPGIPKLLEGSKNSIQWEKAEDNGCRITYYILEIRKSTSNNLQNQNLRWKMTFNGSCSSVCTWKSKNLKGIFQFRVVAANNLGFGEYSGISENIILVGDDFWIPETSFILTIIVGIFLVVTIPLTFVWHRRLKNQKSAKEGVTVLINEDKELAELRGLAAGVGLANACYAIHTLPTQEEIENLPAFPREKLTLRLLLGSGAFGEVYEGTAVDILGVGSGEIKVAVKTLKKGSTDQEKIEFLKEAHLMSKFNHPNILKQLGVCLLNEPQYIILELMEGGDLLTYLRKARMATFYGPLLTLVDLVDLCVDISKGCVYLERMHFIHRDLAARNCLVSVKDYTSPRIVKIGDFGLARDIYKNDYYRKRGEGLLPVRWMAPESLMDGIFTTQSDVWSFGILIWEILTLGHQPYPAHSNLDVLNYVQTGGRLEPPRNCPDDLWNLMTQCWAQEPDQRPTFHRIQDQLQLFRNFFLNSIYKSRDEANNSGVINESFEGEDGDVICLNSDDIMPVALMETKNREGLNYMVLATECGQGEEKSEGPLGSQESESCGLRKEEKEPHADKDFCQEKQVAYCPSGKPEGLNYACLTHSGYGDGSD

[9] = target: Receptor tyrosine-protein kinase erbB-2 (Homo sapiens) (UniProt P04626); test: activity of ErbB2(h) at 1.0 µM in the Eurofins Kinase panel; details: Compound concentration 1.0 uM
[10] = target: Serine/threonine-protein kinase BRSK1 (Homo sapiens) (UniProt Q8TDC3); test: activity of BrSK1(h) at 1.0 µM in the Eurofins Kinase panel; details: Compound concentration 1.0 uM
[11] = target: Dual specificity tyrosine-phosphorylation-regulated kinase 1B (Homo sapiens) (UniProt Q9Y463); test: activity of DYRK1B(h) at 1.0 µM in the Eurofins Kinase panel; details: Compound concentration 1.0 uM
[12] = target: Serine/threonine-protein kinase WNK4 (Homo sapiens) (UniProt Q96J92); test: activity of WNK4(h) at 1.0 µM in the Eurofins Kinase panel; details: Compound concentration 1.0 uM
[13] = target: Eukaryotic elongation factor 2 kinase (Homo sapiens) (UniProt O00418); test: activity of eEF-2K(h) at 1.0 µM in the Eurofins Kinase panel; details: Compound concentration 1.0 uM
[14] = target: Serine/threonine-protein kinase/endoribonuclease IRE1 (Homo sapiens) (UniProt O75460); test: activity of IRE1(h) at 1.0 µM in the Eurofins Kinase panel; details: Compound concentration 1.0 uM
[15] = target: SRSF protein kinase 1 (Homo sapiens) (UniProt Q96SB4); test: activity of SRPK1(h) at 1.0 µM in the Eurofins Kinase panel; details: Compound concentration 1.0 uM
[16] = target: Fibroblast growth factor receptor 3 (Homo sapiens) (UniProt P22607); test: activity of FGFR3(h) at 1.0 µM in the Eurofins Kinase panel; details: Compound concentration 1.0 uM
[17] = target: Serine/threonine-protein kinase Nek11 (Homo sapiens) (UniProt Q8NG66); test: activity of NEK11(h) at 1.0 µM in the Eurofins Kinase panel; details: Compound concentration 1.0 uM
[18] = target: Serine/threonine-protein kinase pim-2 (Homo sapiens) (UniProt Q9P1W9); test: activity of Pim-2(h) at 1.0 µM in the Eurofins Kinase panel; details: Compound concentration 1.0 uM
[19] = target: Serine/threonine-protein kinase D3 (Homo sapiens) (UniProt O94806); test: activity of PKD3(h) at 1.0 µM in the Eurofins Kinase panel; details: Compound concentration 1.0 uM
[20] = target: Dual specificity protein kinase CLK4 (Homo sapiens) (UniProt Q9HAZ1); test: activity of CLK4(h) at 1.0 µM in the Eurofins Kinase panel; details: Compound concentration 1.0 uM
[21] = target: Phosphorylase b kinase gamma catalytic chain, skeletal muscle/heart isoform (Homo sapiens) (UniProt Q16816); test: activity of PhKgamma1(h) at 1.0 µM in the Eurofins Kinase panel; details: Compound concentration 1.0 uM
[22] = target: cAMP-dependent protein kinase catalytic subunit PRKX (Homo sapiens) (UniProt P51817); test: activity of PrKX(h) at 1.0 µM in the Eurofins Kinase panel; details: Compound concentration 1.0 uM
[23] = target: Insulin-like growth factor 1 receptor (Homo sapiens) (UniProt P08069); test: activity of IGF-1R(h), activated at 1.0 µM in the Eurofins Kinase panel; details: Compound concentration 1.0 uM
Insulin-like growth factor 1 receptor (Homo sapiens), sequence (P08069 31-736 limits assumed): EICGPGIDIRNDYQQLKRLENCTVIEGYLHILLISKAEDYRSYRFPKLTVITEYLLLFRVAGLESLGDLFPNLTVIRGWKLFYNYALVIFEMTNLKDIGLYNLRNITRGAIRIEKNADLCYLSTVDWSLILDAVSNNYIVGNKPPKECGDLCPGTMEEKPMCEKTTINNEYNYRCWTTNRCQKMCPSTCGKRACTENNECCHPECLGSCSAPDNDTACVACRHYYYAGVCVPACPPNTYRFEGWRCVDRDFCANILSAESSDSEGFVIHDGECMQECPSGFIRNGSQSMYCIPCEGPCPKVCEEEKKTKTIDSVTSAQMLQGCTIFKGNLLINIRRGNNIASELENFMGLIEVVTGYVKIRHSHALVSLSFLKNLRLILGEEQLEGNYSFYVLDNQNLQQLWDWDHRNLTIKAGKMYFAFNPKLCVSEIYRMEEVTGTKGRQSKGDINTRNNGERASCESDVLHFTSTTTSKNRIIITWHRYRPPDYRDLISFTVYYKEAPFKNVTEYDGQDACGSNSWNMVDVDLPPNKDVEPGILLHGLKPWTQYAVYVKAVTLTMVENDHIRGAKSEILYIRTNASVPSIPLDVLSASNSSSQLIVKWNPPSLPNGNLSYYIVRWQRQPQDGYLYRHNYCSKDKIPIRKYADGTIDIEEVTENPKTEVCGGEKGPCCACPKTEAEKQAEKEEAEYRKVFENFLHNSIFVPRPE
Insulin-like growth factor 1 receptor (Homo sapiens), sequence (P08069 741-1367 limits assumed): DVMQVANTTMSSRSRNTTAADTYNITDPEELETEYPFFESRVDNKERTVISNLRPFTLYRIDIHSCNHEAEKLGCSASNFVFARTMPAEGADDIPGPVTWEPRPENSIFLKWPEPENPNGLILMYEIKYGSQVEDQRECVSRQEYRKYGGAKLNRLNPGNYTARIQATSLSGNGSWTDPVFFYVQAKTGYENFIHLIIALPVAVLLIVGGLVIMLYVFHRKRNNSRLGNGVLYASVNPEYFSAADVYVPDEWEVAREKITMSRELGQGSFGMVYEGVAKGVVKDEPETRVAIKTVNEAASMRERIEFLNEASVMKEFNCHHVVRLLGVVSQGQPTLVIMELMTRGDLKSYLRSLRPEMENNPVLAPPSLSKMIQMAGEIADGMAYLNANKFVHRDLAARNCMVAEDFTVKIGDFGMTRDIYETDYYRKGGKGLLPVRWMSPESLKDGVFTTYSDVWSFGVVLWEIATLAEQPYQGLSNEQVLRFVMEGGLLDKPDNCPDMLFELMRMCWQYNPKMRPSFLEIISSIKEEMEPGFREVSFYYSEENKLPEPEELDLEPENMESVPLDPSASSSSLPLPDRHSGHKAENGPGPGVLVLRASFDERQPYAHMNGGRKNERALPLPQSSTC

[24] = target: Dual specificity protein kinase CLK1 (Homo sapiens) (UniProt P49759); test: activity of CLK1(h) at 1.0 µM in the Eurofins Kinase panel; details: Compound concentration 1.0 uM
[25] = target: Protein kinase C theta type (Homo sapiens) (UniProt Q04759); test: activity of PKCtheta(h) at 1.0 µM in the Eurofins Kinase panel; details: Compound concentration 1.0 uM
[26] = target: Rho-associated protein kinase 1 (Homo sapiens) (UniProt Q13464); test: activity of ROCK-I(h) at 1.0 µM in the Eurofins Kinase panel; details: Compound concentration 1.0 uM
[27] = target: Tyrosine-protein kinase JAK2 (Homo sapiens) (UniProt O60674); test: activity of JAK2(h) at 1.0 µM in the Eurofins Kinase panel; details: Compound concentration 1.0 uM
[28] = target: LIM domain kinase 2 (Homo sapiens) (UniProt P53671); test: activity of LIMK2(h) at 1.0 µM in the Eurofins Kinase panel; details: Compound concentration 1.0 uM
[29] = target: Calcium/calmodulin-dependent protein kinase type 1D (Homo sapiens) (UniProt Q8IU85); test: activity of CaMKIdelta(h) at 1.0 µM in the Eurofins Kinase panel; details: Compound concentration 1.0 uM
[30] = target: Tyrosine-protein kinase Srms (Homo sapiens) (UniProt Q9H3Y6); test: activity of SRMS(h) at 1.0 µM in the Eurofins Kinase panel; details: Compound concentration 1.0 uM
[31] = target: Tyrosine-protein kinase receptor TYRO3 (Homo sapiens) (UniProt Q06418); test: activity of Rse(h) at 1.0 µM in the Eurofins Kinase panel; details: Compound concentration 1.0 uM
[32] = target: ALK tyrosine kinase receptor (Homo sapiens) (UniProt Q9UM73); test: activity of ALK(h) at 1.0 µM in the Eurofins Kinase panel; details: Compound concentration 1.0 uM
[33] = target: Casein kinase I isoform delta (Homo sapiens) (UniProt P48730); test: activity of CK1delta(h) at 1.0 µM in the Eurofins Kinase panel; details: Compound concentration 1.0 uM
[34] = target: Leukocyte tyrosine kinase receptor (Homo sapiens) (UniProt P29376); test: activity of LTK(h) at 1.0 µM in the Eurofins Kinase panel; details: Compound concentration 1.0 uM
[35] = target: Tyrosine-protein kinase ABL1 (Homo sapiens) (UniProt P00519); test: activity of Abl(h) at 1.0 µM in the Eurofins Kinase panel; details: Compound concentration 1.0 uM
[36] = target: Dual specificity mitogen-activated protein kinase kinase 6 (Homo sapiens) (UniProt P52564); test: activity of MKK6(h) at 1.0 µM in the Eurofins Kinase panel; details: Compound concentration 1.0 uM
[37] = target: Insulin receptor (Homo sapiens) (UniProt P06213); test: activity of IR(h), activated at 1.0 µM in the Eurofins Kinase panel; details: Compound concentration 1.0 uM
[38] = target: Insulin-like growth factor 1 receptor (Homo sapiens) (UniProt P08069); test: activity of IGF-1R(h) at 1.0 µM in the Eurofins Kinase panel; details: Compound concentration 1.0 uM
[39] = target: Phosphatidylinositol 4-phosphate 5-kinase type-1 gamma (Homo sapiens) (UniProt O60331); test: activity of PIP5K1gamma(h) at 1.0 µM in the Eurofins Kinase panel; details: Compound concentration 1.0 uM
[40] = target: Protein kinase C epsilon type (Homo sapiens) (UniProt Q02156); test: activity of PKCepsilon(h) at 1.0 µM in the Eurofins Kinase panel; details: Compound concentration 1.0 uM
Protein kinase C epsilon type (Homo sapiens), sequence (Q02156 whole entry): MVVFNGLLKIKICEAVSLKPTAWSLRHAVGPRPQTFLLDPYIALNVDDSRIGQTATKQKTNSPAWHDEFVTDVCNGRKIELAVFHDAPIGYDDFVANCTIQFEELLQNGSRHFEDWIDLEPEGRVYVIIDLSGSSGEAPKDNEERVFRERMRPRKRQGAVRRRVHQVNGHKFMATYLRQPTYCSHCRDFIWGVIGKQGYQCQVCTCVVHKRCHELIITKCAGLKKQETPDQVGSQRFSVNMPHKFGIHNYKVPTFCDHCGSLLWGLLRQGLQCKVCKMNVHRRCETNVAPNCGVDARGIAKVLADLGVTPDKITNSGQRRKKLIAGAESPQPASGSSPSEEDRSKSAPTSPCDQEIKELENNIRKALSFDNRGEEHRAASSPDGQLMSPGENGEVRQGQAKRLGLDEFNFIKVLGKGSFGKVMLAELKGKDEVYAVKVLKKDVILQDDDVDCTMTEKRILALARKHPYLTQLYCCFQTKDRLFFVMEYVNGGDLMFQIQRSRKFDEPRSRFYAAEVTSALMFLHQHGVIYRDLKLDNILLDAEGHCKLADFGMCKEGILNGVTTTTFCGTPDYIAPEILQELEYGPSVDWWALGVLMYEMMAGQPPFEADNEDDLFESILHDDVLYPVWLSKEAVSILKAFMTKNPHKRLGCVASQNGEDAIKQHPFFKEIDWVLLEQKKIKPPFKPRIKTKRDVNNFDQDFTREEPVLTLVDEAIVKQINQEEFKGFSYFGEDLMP

Serine/threonine-protein kinase PLK2 (Homo sapiens), sequence (Q9NYY3 whole entry, looked up): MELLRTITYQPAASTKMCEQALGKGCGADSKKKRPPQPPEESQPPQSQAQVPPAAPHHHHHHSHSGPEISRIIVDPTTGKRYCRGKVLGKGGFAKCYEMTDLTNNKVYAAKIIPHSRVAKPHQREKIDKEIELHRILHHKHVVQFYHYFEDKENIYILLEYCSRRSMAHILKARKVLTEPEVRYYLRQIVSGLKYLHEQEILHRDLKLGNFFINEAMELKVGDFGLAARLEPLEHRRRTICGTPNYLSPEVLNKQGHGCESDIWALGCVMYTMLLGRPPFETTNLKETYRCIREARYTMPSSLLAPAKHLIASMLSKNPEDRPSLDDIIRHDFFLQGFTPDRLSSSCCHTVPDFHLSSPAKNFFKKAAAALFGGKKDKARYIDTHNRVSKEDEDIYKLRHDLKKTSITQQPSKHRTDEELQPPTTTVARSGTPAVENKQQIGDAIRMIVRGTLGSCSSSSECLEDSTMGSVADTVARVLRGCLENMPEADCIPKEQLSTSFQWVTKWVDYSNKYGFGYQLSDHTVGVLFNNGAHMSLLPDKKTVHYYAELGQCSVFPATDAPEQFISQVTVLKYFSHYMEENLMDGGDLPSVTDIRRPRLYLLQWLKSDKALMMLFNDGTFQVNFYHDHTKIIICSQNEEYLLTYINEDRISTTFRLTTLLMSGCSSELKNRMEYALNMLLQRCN

SMILES: Cc1cc2c(-c3ccc(NC(=O)[C@H](N)CC(C)(C)C)cc3C)ccnc2[nH]1
- activity [1]: 94%
- activity [2]: 98%
- activity [3]: 96%
- activity [4]: 106%
- activity [5]: 87%
- activity [6]: 85%
- IC50 [7]: > 10 µM (not active)
- activity [8]: 97%
- activity [9]: 97%
- activity [10]: 96%
- activity [11]: 108%
- activity [12]: 97%
- activity [13]: 92%
- activity [14]: 99%
- activity [15]: 95%
- activity [16]: 86%
- activity [17]: 97%
- activity [18]: 117%
- activity [19]: 97%
- activity [20]: 85%
- activity [21]: 101%
- activity [22]: 101%
- activity [23]: 93%
- activity [24]: 88%
- activity [25]: 103%
- activity [26]: 96%
- activity [27]: 104%
- activity [28]: 72%
- activity [29]: 89%
- activity [30]: 86%
- activity [31]: 129%
- activity [32]: 77%
- activity [33]: 96%
- activity [34]: 97%
- activity [35]: 99%
- activity [36]: 101%
- activity [37]: 92%
- activity [38]: 98%
- activity [39]: 102%
- activity [40]: 97%
